Measured values reported in US12110284B2, “Fasoracetam crystalline forms” (The Children's Hospital of Philadelphia, priority 2018, dated 2024).
Like-named read-outs stand apart in the source and are kept apart here.

Key:
[1] = DSC enthalpy of fusion of fasoracetam forms; format: physicochemical
Method: DSC measurements were performed on a DSC 821 METTLER TOLEDO under continuous nitrogen flow. Perforated aluminium crucibles were used for analysis. Onsets were determined by manually constructing a tangent to the peak and a prolongation of the baseline. Total enthalpies were calculated by manual peak integration using a linear interpolation between the initial and final temperatures of integration. To obtain the normalized enthalpy, the total enthalpy was divided by the total sample mass. Ramp rates were typically done at 5° C./minute Using Burger's Heat of Fusion rule for both hydrated forms (Table 6), they should be monotropically related. Because both hydrates were obtained from different solvents (water and methanol for Forms I and II, respectively), a slurrying experiment where both vials were seeded with the opposite hydrate was performed and left under these conditions for 1 week.

[2] = format: physicochemical; settings: for first onset of weight loss / weight loss continues up to / water loss (initial weight loss): TGA; for first onset of weight loss / weight loss continues up to: nitrogen flow; for water loss (initial weight loss): equivalents of water
Method: TGA measurements were carried out on a METTLER TOLEDO TGA/SDTA 851e. Samples were placed in open aluminum oxide crucible. All experiments were performed under nitrogen flow.
A thermal analysis of all forms was performed in order to characterize the fasoracetam forms and to identify the stability of different forms. TGA measurements (FIG. 21) clearly mark the difference between the hydrated and anhydrated form. […] The weight loss continues up to 185° C. When the temperature is increased further, degradation occurs, starting around 260° C. The initial loss corresponds to 1.1 equivalent of water, as expected for a 1:1 stoichiometric hydrate. The slight deviation from the ideal stoichiometric ratio can be attributed to the crystallization conditions (the bulk material was obtained from an aqueous solution and the water remaining on the crystal surface or trapped between crystals is likely to cause the deviation observed). […] Analogous to Form I, degradation occurs which starts around 268° C. The observed water loss here is 0.9 equivalent, which is expected for a stoichiometric hydrate.

[3] = Hygroscopicity of the solid form; format: physicochemical
Method: In further embodiments of the disclosure, R-fasoracetam anhydrate is provided. […] This lack of water of crystallization is a characterizing feature of the anhydrate of R-fasoracetam with respect to Form I or Form II. FIG. 13 is an XRPD pattern of the anhydrate and any one or more of the peaks in that XRPD pattern may be used to characterize the anhydrate. Thus, one or more peaks at about 8.9°2θ, about 13.1°2θ, about 15.2°2θ, about 17.8°2θ, about 18.7°2θ, about 20.3°2θ, and about 22.7°2⊖ may be used to characterize the anhydrate form of R-fasoracetam. The anhydrate has an onset melting temperature at about 94° C. Thus, in another embodiment, an onset melting point of about 94° C. together with one or more peaks at about 8.9°2θ, about 13.1°2θ, about 15.2°2θ, about 17.8°2θ, about 18.7°2θ, about 20.3°2θ, and about 22.7°2⊖ may be used to characterize R-fasoracetam anhydrate. R-fasoracetam anhydrate may be further characterized by a diffraction pattern substantially the same as that of FIG. 13. A DSC thermogram of R-fasoracetam anhydrate appears in FIG. 25. The ramp rate was at 10° C. per minute. The R-fasoracetam anhydrate being hygroscopic, the sample in FIG. 25 was obtained by keeping R-fasoracetam monohydrate Form I under vacuum for a prolonged period at a temperature of 65° C.

[4] = Storage of the anhydrate at ambient conditions, conversion tracked daily via XRPD; format: physicochemical; settings: 1-week period
[5] = Slurrying experiment of both hydrates seeded with the opposite hydrate, XRPD analysis; format: physicochemical; settings: water and methanol slurries seeded with the opposite hydrate, 1 week
Method: Using Burger's Heat of Fusion rule for both hydrated forms (Table 6), they should be monotropically related. Because both hydrates were obtained from different solvents (water and methanol for Forms I and II, respectively), a slurrying experiment where both vials were seeded with the opposite hydrate was performed and left under these conditions for 1 week.

mGluRs = settings: in vitro; cited from earlier work
[6] = cited from earlier work

Enthalpy of Fusion (ΔHfus, J/g) [1]	degradation starts [2]	first onset of weight loss [2]	hygroscopicity [3]	Enthalpy of Fusion (ΔHfus, J/g) ([1]; listed as Fasoracetam hydrate I)	weight loss continues up to [2]	water loss (initial weight loss) [2]	Enthalpy of Fusion (ΔHfus, J/g) ([1]; listed as Fasoracetam hydrate II)	Compound	conversion of solid form on storage [4]	solid form stability in slurry [5]	activity against mGluRs (mGluRs)	treatment of further disorders ([6]; subjects having ADHD and 22q11.2 Deletion Syndrome, anxiety, conduct disorder, Tourette's syndrome)	treatment of ADHD ([6]; subjects having a genetic alteration in an mGluR network gene, clinical trial)
	around 260 °C	41 °C		-120.9 J/g	185 °C	1.1 equivalent		O=C1CC[C@H](C(=O)N2CCCCC2)N1 [Form I, R-fasoracetam monohydrate Form I, reference compound]					
	around 268 °C	41 °C			183 °C	0.9 equivalent	-79.0 J/g	O=C1CC[C@H](C(=O)N2CCCCC2)N1 [Form II, R-fasoracetam monohydrate Form II]		complete solution mediated polymorphic transition from Form II to Form I			
								O=C1CC[C@H](C(=O)N2CCCCC2)N1 [fasoracetam, R-fasoracetam]			nonselective activator against all classes of mGluRs	successful	successfully treated

Compound	Enthalpy of Fusion (ΔHfus, J/g) [1]	degradation starts [2]	first onset of weight loss [2]	hygroscopicity [3]	Enthalpy of Fusion (ΔHfus, J/g) ([1]; listed as Fasoracetam hydrate I)	weight loss continues up to [2]	water loss (initial weight loss) [2]	Enthalpy of Fusion (ΔHfus, J/g) ([1]; listed as Fasoracetam hydrate II)	conversion of solid form on storage [4]	solid form stability in slurry [5]	activity against mGluRs (mGluRs)	treatment of further disorders ([6]; subjects having ADHD and 22q11.2 Deletion Syndrome, anxiety, conduct disorder, Tourette's syndrome)	treatment of ADHD ([6]; subjects having a genetic alteration in an mGluR network gene, clinical trial)
O=C1CC[C@H](C(=O)N2CCCCC2)N1 [anhydrate, R-fasoracetam anhydrate]	-76.7 J/g	around 260 °C	no particular weight loss up until degradation	hygroscopic					conversion to the stable hydrate occurs at ambient conditions over a 1-week period				
